{
  "source": "paper PMC4368482",
  "about": "(Nature, 2014)",
  "target": "T1, tyrosyl tRNA synthetase (TyrRS) (Homo sapiens, UniProt P54577)",
  "T1 sequence (P54577 1-528)": "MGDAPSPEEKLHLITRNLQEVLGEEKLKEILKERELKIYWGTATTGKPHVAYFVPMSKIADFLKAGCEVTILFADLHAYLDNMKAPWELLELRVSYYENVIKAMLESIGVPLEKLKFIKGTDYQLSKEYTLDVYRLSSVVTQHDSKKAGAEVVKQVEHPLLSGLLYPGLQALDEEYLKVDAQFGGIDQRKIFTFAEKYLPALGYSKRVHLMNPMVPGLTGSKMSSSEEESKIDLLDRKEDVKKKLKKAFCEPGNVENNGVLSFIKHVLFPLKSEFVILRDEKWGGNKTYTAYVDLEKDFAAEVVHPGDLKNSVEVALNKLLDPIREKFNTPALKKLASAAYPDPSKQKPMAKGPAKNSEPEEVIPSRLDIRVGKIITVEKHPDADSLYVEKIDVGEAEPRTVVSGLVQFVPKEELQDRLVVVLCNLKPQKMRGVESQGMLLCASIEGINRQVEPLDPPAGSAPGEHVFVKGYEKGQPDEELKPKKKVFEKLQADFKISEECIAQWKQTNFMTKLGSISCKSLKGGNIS",
  "assay": "X-ray co-crystal structure",
  "type": "biochemical",
  "note": "pKi: −log10 of the molar value.",
  "data": [
    {"smiles": "Oc1ccc(/C=C/c2cc(O)cc(O)c2)cc1", "note": "[RSV, resveratrol]", "values": [
      {"measurement": "pKi", "value": 4.66}
    ]}
  ]
}
